“Also recorded” adds a separate entry of the source. Like-named read-outs stand apart in the source and are kept apart here.
Experiments:
human VMAT1 transporter = molecular target: T1, human VMAT1 transporter (Homo sapiens, UniProt P54219); assay: Uptake in cells expressing VMAT1; type: cell-based; details: concentrations up to 10 μM
T1 construct: expressed in transfected cells
T1 sequence (P54219 1-525): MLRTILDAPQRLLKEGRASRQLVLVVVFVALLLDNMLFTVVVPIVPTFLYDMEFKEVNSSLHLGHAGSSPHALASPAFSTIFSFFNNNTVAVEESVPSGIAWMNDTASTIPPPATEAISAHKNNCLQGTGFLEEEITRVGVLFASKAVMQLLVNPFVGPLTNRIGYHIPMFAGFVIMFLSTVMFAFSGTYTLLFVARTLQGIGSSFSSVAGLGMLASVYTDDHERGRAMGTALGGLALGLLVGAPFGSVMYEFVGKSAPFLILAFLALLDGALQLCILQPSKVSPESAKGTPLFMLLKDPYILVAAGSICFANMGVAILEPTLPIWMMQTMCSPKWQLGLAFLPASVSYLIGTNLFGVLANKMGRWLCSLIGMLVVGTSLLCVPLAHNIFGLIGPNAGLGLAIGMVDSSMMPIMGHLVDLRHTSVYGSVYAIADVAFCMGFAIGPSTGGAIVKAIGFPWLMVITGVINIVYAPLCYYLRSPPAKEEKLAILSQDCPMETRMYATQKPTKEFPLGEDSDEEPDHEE

[1] = system: more than 80 targets (GPCRs, cell-surface monoamine transporters, ion channels including HERG); assay: Cerep multi-target activity screen; details: broad panel screen
[2] = Safety and tolerability in the Phase 1 ketoconazole interaction study; type: in vivo; details: for Subjects with TEAE: Constipation / Subjects with TEAE: Dizziness postural / Subjects with TEAE: Gastrointestinal Disorders / Subjects with TEAE: Headache / Subjects with TEAE: Injury, Poisoning and Procedural Complications / Subjects with TEAE: Nausea / Subjects with TEAE: Nervous System Disorders / Subjects with TEAE: Procedural dizziness / Subjects with treatment-emergent adverse event: Overall: N = 24
Protocol: This was a Phase 1, single-center, open-label, drug interaction study conducted in 24 healthy male and female subjects.
All subjects received the same treatment. Subjects received a single dose of 50 mg NBI-98854 on Days 1 and 6 at approximately 0800 hours. In addition, subjects received 200 mg ketoconazole twice daily (bid) on Days 5 through 9 at approximately 0800 and 2000 hours. Subjects were required to fast overnight from approximately 10 hours before until 4 hours after NBI-98854 dose on Days 1 and 6. Subjects were given meals upon completion of study assessments/dosing and at regular meal times during their stay in the research unit.
TEAEs are summarized below. There were no pretreatment AEs. […] Five subjects (20.8%) experienced 6 AEs during the study; all AEs occurred after the initial treatment with NBI-98854 alone. […] The only AE that occurred in >1 subject was headache (2 subjects, 8.3%). […] Two events were considered possibly related to study drug, 1 event of headache and the event of dizziness postural. The other event of headache was considered unlikely related to study drug.

[3] = Phase 1 open-label drug interaction study: effect of ketoconazole on the pharmacokinetics of NBI-98854 in healthy subjects; type: in vivo, human; details: for CL/F Mean (SD): analyte NBI-98854; for AUC(0-inf): read-out: AUC0-∞ Mean (SD); for Cmax: read-out: Cmax Mean (SD); for half-life: read-out: t1/2 Mean (SD) (converted)
Protocol: All subjects received the same treatment. […] Subjects were given meals upon completion of study assessments/dosing and at regular meal times during their stay in the research unit. […] Blood specimens to determine ketoconazole plasma concentrations were collected predose through Day 9. Safety and tolerability was assessed through Day 10. […] The tmax was analyzed using non-parametric methods. […] Safety data were summarized using descriptive statistics.

[4] = NBI-98854 (50 mg) + Ketoconazole (200 mg)
[5] = both sexes, human, oral, analyte NBI-98854 in plasma, NBI-98854 (50 mg) alone, N = 24
[6] = both sexes, human, oral, analyte NBI-98854 in plasma, NBI-98854 (80 mg) + Ketoconazole (200 mg), N = 24

Structure (SMILES): COc1cc2c(cc1OC)C1CC(=O)C(CC(C)C)CN1CC2 (centres unmarked) [TBZ, Tetrabenazine, reference compound]
- inhibition of uptake through VMAT1 (human VMAT1 transporter): no significant inhibitory activity; also recorded: no significant effect

Structure (SMILES): COc1cc2c(cc1OC)[C@H]1C[C@@H](OC(=O)[C@@H](N)C(C)C)[C@H](CC(C)C)CN1CC2 [NBI-98854, (S)-2-amino-3-methyl-butyric acid (2R, 3R,11bR)-3-isobutyl-9,10-dimethoxy-1,3,4,6,7,11b-hexahydro-2H-pyrido[2,1-a]isoquinolin-2-yl ester]
- inhibition of uptake through VMAT1 (human VMAT1 transporter; listed as VBZ): no significant inhibitory activity; also recorded: no significant effect
- affinity for more than 80 binding sites, including receptors, monoamine transporters, and ion channels [1]: little to no affinity
- Subjects with headache (only AE in >1 subject) ([2]; 2 subjects): 8.3%
- Subjects with TEAE: Constipation [2, 4]: 0 n, %
- Subjects with TEAE: Dizziness postural [2, 4]: 0 n, %
- Subjects with TEAE: Gastrointestinal Disorders [2, 4]: 0 n, %
- Subjects with TEAE: Headache [2, 4]: 0 n, %
- Subjects with TEAE: Injury, Poisoning and Procedural Complications [2, 4]: 0 n, %
- Subjects with TEAE: Nausea [2, 4]: 0 n, %
- Subjects with TEAE: Nervous System Disorders [2, 4]: 0 n, %
- Subjects with TEAE: Procedural dizziness [2, 4]: 0 n, %
- Subjects with treatment-emergent adverse event: Overall [2, 4]: 0 n, %
- Subjects with TEAE: Constipation ([2]; NBI-98854 (50 mg)): 1 (4.2) n, %
- Subjects with TEAE: Dizziness postural ([2]; NBI-98854 (50 mg)): 1 (4.2) n, %
- Subjects with TEAE: Gastrointestinal Disorders ([2]; NBI-98854 (50 mg)): 2 (8.3) n, %
- Subjects with TEAE: Headache ([2]; NBI-98854 (50 mg)): 2 (8.3) n, %
- Subjects with TEAE: Injury, Poisoning and Procedural Complications ([2]; NBI-98854 (50 mg)): 1 (4.2) n, %
- Subjects with TEAE: Nausea ([2]; NBI-98854 (50 mg)): 1 (4.2) n, %
- Subjects with TEAE: Nervous System Disorders ([2]; NBI-98854 (50 mg)): 3 (12.5) n, %
- Subjects with TEAE: Procedural dizziness ([2]; NBI-98854 (50 mg)): 1 (4.2) n, %
- Subjects with treatment-emergent adverse event: Overall ([2]; NBI-98854 (50 mg)): 5 (20.8) n, %
- Tolerability ([2]; administered alone and concomitantly with ketoconazole in healthy volunteers): well tolerated
- Subjects who experienced AEs during the study ([2]; all AEs after the initial treatment with NBI-98854 alone, onset Day 1 or 2, five subjects, 6 AEs): 20.8%
- 12-lead ECGs ([2]; during the study): no abnormal ECGs that were assessed as clinically significant
- Body weight changes ([2]; during the study): no important changes in body weight
- Physical examination findings ([2]; during the study): No abnormal physical examination findings
- Vital signs including orthostatic changes ([2]; postdose): No clinically relevant postdose mean vital signs changes
- Clinical laboratory values (hematology, serum chemistry, urinalysis) ([2]; pre- and postdose): no results considered clinically significant
- Deaths, SAEs, discontinuations due to an AE ([2]; whole study): no deaths, SAEs, or discontinuations due to an AE
- Intensity of AEs ([2]; whole study): mild in intensity
- CL/F Mean (SD) ([3]; NBI-98854 (50 mg) alone, N = 24): 16.3 (5.94) L/hr
- CL/F Mean (SD) ([3]; NBI-98854 (80 mg) + Ketoconazole (200 mg), N = 24): 7.96 (2.75) L/hr
- Tlag Mean (SD) ([3]; analyte NBI-98854 in plasma, NBI-98854 (50 mg) alone, N = 24): 0.11 (0.13) hours
- Tlag Mean (SD) ([3]; analyte NBI-98854 in plasma, NBI-98854 (80 mg) + Ketoconazole (200 mg), N = 24): 0.02 (0.07) hours
- AUC(0-inf) [3, 5]: 3470 ng·h/mL
- Cmax [3, 5]: 425 ng/mL
- AUC(0-inf) [3, 6]: 7340 ng·h/mL
- Cmax [3, 6]: 624 ng/mL
- MRT ([3]; both sexes, human, oral, analyte NBI-98854 in plasma, NBI-98854 (80 mg) + Ketoconazole (200 mg), N = 24, read-out: MRT Mean (SD)): 22 h
- half-life [3, 6]: 20 h
- AUC(0-t) ([3]; both sexes, human, plasma, oral, 50 mg, analyte NBI-98854 in plasma, NBI-98854 (50 mg) alone, N = 24, read-out: AUC0-24 Mean (SD)): 2580 ng·h/mL
- AUC(0-t) ([3]; both sexes, human, plasma, oral, 50 mg, analyte NBI-98854 in plasma, NBI-98854 (50 mg) alone, N = 24, read-out: AUC0-tlast Mean (SD)): 3420 ng·h/mL
- AUC(0-t) ([3]; both sexes, human, plasma, oral, analyte NBI-98854 in plasma, NBI-98854 (80 mg) + Ketoconazole (200 mg), N = 24, read-out: AUC0-24 Mean (SD)): 4820 ng·h/mL
- AUC(0-t) ([3]; both sexes, human, plasma, oral, analyte NBI-98854 in plasma, NBI-98854 (80 mg) + Ketoconazole (200 mg), N = 24, read-out: AUC0-tlast Mean (SD)): 7100 ng·h/mL

Structure (SMILES): COC(=O)[C@H]1[C@H]2C[C@@H]3c4[nH]c5cc(OC)ccc5c4CCN3C[C@H]2C[C@@H](OC(=O)c2cc(OC)c(OC)c(OC)c2)[C@@H]1OC [reserpine, reference compound]
- inhibition of uptake through VMAT1 (human VMAT1 transporter): substantially inhibited uptake through VMAT1

Structure (SMILES): COc1cc2c(cc1OC)[C@H]1C[C@@H](O)[C@H](CC(C)C)CN1CC2 [NBI-98782, (2R, 3R,11bR)-3-isobutyl-9,10-dimethoxy-1,3,4,6,7,11b-hexahydro-2H-pyrido[2,1-a]isoquinolin-2-ol]
- inhibition of uptake through VMAT1 (human VMAT1 transporter; listed as R,R,R-DHTBZ): no significant inhibitory activity; also recorded: no significant effect
- affinity for more than 80 binding sites, including receptors, monoamine transporters, and ion channels [1]: little to no affinity
- half-life ([3]; both sexes, human, plasma, oral, 50 mg): 18 h

Structure (SMILES): CC(=O)N1CCN(c2ccc(OCC3COC(Cn4ccnc4)(c4ccc(Cl)cc4Cl)O3)cc2)CC1 (centres unmarked) [Ketoconazole, ketoconazole, reference compound]
- concentration at 1 h ([3]; both sexes, human, plasma, oral, 200 mg ketoconazole bid, Days 5 to 9 at 1 hour postdose, read-out: Mean plasma concentrations of ketoconazole): 1640 to 5180 ng/mL
